Measurements reported in US20240181111A1, “SYSTEMS AND METHODS FOR AIR SANITIZATION USING FORMULAS CONTAINING AN ORGANIC ACID” (The Clorox Company, priority 2022, published 2024).
Where “and” joins values, the source holds several entries; their conditions need not be identical. Equal values may be shown once. Read-outs that look alike come from different tables or passages of the source.

What was measured:
[1] = cited from earlier work
[2] = cited from earlier work; remark: listed apart in the source
[3] = Candidate screening for antimicrobial synergy with lactic acid
Procedure: In addition to tested organic acids, a number of glycols, alcohols, diols and other candidates were also screened, for pairing with the organic acid. Viable candidates may also have: 1) a vapor pressure characteristics as noted above; 2) be soluble in water; and/or 3) have an ECHA Inhalation Threshold for the General Population of greater than 10 mg/m^3.
As such, while glycols may optionally be present, in an embodiment, the present formulations may be void, or substantially void of such glycol components (particularly propylene glycol and glycols including an ether group). The same may be said for various other candidate materials noted in Table 2.

[4] = cited from earlier work; remark: listed apart in the source
[5] = Acid dissociation of lactic acid; type: physicochemical; settings: at a pH of 2.2
From the text: In another aspect, the pH of the antimicrobial formulation is kept low. A low pH can be important for lactic acid or other acids to achieve air sanitization efficacy. […].

[6] = Table 2 candidates for pairing with the organic acid
[7] = Table 1 organic acids, standard conditions (e.g., 20° C. and 1 atmosphere)
[8] = organic acids, long term inhalation

CCC(O)CO (stereo not shown) [1,2-butanediol]
Vapor Pressure [1, 6]: 10 Pa
ECHA Inhalation Threshold for General Population ([2]; Table 2 candidates): No hazard identified

CCCCC(O)CO (stereo not shown) [1,2-hexanediol (HDO), 1,2-hexanediol]
antimicrobial synergy with lactic acid [3]: synergy with lactic acid

CC(O)CCO (stereo not shown) [1,3-butanediol]
Vapor Pressure [1, 6]: 26 Pa

CCCCCCCCCCCCO [1-dodecanol]
ECHA Inhalation Threshold for General Population ([2]; Table 2 candidates): 77 mg/m^3

O=C(O)CCO [3-hydroxypropionic acid]
Solubility in water (g of compound in 100 g of water at ~20° C.) [4]: Very soluble^1

CC(=O)O [acetic acid]
Vapor Pressure [1, 7]: 2080^3 Pa
ECHA local effects DNEL ([2]; local effects): 25 mg/m^3)^1

O=C(O)CCCCC(=O)O [adipic acid]
Vapor Pressure [1, 7]: 9.70^1 Pa

O=C(O)c1ccccc1 [benzoic acid]
Vapor Pressure [1, 7]: 0.11^1 Pa
ECHA Inhalation Threshold for General Population [2, 8]: 1.5^3 mg/m^3

O=C(O)CO [glycolic acid]
ECHA Inhalation Threshold for General Population [2, 8]: 2.6 mg/m^3 and 2.6^3 mg/m^3

CCCCCCC(=O)O [heptanoic acid]
Solubility in water (g of compound in 100 g of water at ~20° C.) [4]: 0.2^2 g of compound in 100 g of water

CCCCCC(=O)O [hexanoic acid]
Vapor Pressure [1, 7]: 5.80^1 Pa
ECHA Inhalation Threshold for General Population [2, 8]: 4.35^3 mg/m^3

CC(O)C(=O)O (stereo not shown) [lactic acid]
fraction of lactic acid in the acidic form [5]: at least 95%

O=C(O)CC(=O)O [malonic acid]
ECHA Inhalation Threshold for General Population [2, 8]: 1.04^3 mg/m^3

CC(=O)C(=O)O [pyruvic acid]
Solubility in water (g of compound in 100 g of water at ~20° C.) [4]: 100^1 g of compound in 100 g of water
solubility ([4]; standard conditions (room temperature and 1 atm)): about 100 g/100 g water
